Laboratory results: patent US20030153081A1, “Viral core protein-cationic lipid-nucleic acid-delivery complexes” (priority 1999, published 2003)

Legend:
[1] = charge ratios worked out from the sequence; type: physicochemical
Excerpt: Mu1 is a polycationic peptide comprised of 19 amino acids associated with the core complex of Adenovirus (Table 1) ^27, 32. We compared the DNA binding capacity of Mu1 with the mouse polyomavirus major capsid protein Vp1 by interaction with plasmid DNA in a gel retardation assay. Vp1 is a 19 amino acid peptide that contains a nuclear localization signal ^26 and contains fewer positively charged amino acids than Mu1. It was therefore predicted to have a lower DNA binding capacity.
The success of non-viral gene delivery vehicles as viable alternatives to virus vector-based systems is dependent on the development of complexes with higher and longer lasting transfection efficiencies. Since the initial identification of cationic liposomes as vehicles for the transfer of genetic material into cells there has been a large push to develop better cationic liposome formulations ^5, 7. Most attempts at improving cationic liposomes have been based on structural modifications to the molecule itself ^30. Novel formulations have been developed which have improved transfection efficiencies ^30. However, particular cell types behave differently in regards to cationic liposomal transfection. For example, we found the polypeptide Mu1 better at enhancing cationic liposome mediated transfection than Vp1. This was probably due to Mu1's greater charge ratio. While both peptides are approximately the same molecular weight, the overall charge ratio of Mu1 was more than twice that of Vp1 (Table 1). […] While a small shift in pDNA mobility was detected when 0.25 μg Mu1 was complexed to 1 μg pCMVβ, almost all of the plasmid was retained near the loading well following addition of 0.5 μg Mu1 (FIG. 1). A 0.5/1.0 (w/w) ratio of Mu1 to pCMVβ corresponds to a 1000/1 molar ratio. Each molecule of Mu1 contains 12 residues that could potentially carry a positive charge. The theoretical charge ratio of Mu1 to pCMVβ would then be 1.6 (12000 Mu1 cations to 7500 pCMVβ anions).

ND7 cells = experiment: β-galactosidase reporter gene assay, transfection of undifferentiated ND7 cells; type: cell-based, rat/mouse
Experimental: ND7 cells were seeded at a density of 5 ×10^4 cells/well in 24 well culture dishes 24 hrs prior to transfection. Immediately prior to transfection, cells were washed in serum-free media. Complexes were formed by incubating pCMVβ with Mu1 prior to the addition of the cationic liposome DC-Chol/DOPE. In each case 1 μg pCMVβ was complexed with 0.6, 6, 12, and 21 μg Mu1 peptide. Each of these combinations was then complexed with 3, 4 and 6 μg DC-Chol/DOPE. ND7 cells were exposed to transfection complexes for 2 hours then maintained at 37° C., 5% CO2 for another 24 hrs before being harvested and processed for β-galactosidase enzyme assay. Numbers represent means±SD, n=3.
pCMVβ plasmid DNA was complexed to various amounts of polycationic peptide and then mixed with cationic liposome at a ratio of 1:3 (pCMVβ:liposome; w/w). After being washed briefly in serum free media, ND7 cells were exposed to the […] complexes for two hours and then returned to serum containing media Twenty-four hours later the cells were harvested and processed for β-galactosidase enzyme assay. Each condition was performed in triplicate and each experiment replicated three times. Numbers represent means±SD.
ND7s are a well-characterized cell line derived from the fusion of a neuroblastoma N18Tg2) with neonatal rat sensory neurons ^28. The cell line was maintained in normal growth media (NGM) (Leibovitz's L-15 media (BRL) enriched with 10% Fetal bovine serum (BRL), 4 g/L glucose, 4 g/L sodium bicarbonate (BRL), 100 IU/mL penicillin/streptomycin (BRL)) at 37° C. and 5% CO2. The cells were plated onto 24 well plates (Costar) at a density that produced 70% confluence after 24 hours.
Since initial experiments determined that the presence of fetal bovine serum inhibited transfection of ND7 cells serum-free differentiation media was used for all transfections. Various amounts of DNA and liposome were placed in the bottom of a 7 mL sterile Bijou container (Bibby Sterilin Ltd., Staffordshire, U.K.), but not in contact with each other.
DNA and liposomes were combined by the addition of 400 μL serum-free differentiation media and gentle shaking. The DNA: liposome mixture was incubated at room temperature for 20 to 30 minutes before being applied to the cells. The DNA/liposome mixture was then applied to the cells and incubated at 37° C., 5% CO2 for 2 hours after which this media was replaced with complete media Twenty four to 48 hours later the cells were fixed and processed for X-gal histochemistry as described ^31 or harvested for β-galactosidase enzyme assays (Promega Corp.).
Transfection complexes including the test peptides were generated in the following manner. Various amounts of peptide was placed in the bottom of sterile polystyrene containers alongside, but not in contact with 1 μg·pCMVβ and mixed by adding 400 μl serum free NGM media The complexes were incubated at room temperature for 10 minutes after which DC-Chol/DOPE was added. The pDNA/peptide/liposome complex was further incubated at room temperature for 20 minutes and then administered to cells as above.
We examined the ability of Mu1 and Vp1 to enhance the transfection of a neuronal cell line by cationic liposomes using a β-Galactosidase reporter gene assay. ND7 cells were transfected with pCMVβ complexed to varying amounts of peptide and DC-Chol/DOPE. We have previously shown that the cationic liposome DC-Chol/DOPE is capable of efficiently transfecting the neuronally derived ND7 cell line ^31. […] Temporally, maximal levels of transgene expression are obtained between 48-60 hours post transfection. Therefore, in order to maximize the chance of detecting improvements in transfection we performed all our assays within 12-20 hours of transfection at a time when levels of reporter gene expression were lower. Previously we found a pDNA: liposome ratio of 1:3 (w/w) optimal for transfections in ND7 cells ^31. […]

Substance: H-MRRAHHRRRRASHRRMRGG-OH [Mu1]
- Charge/AA ratio [1]: 0.63
- theoretical charge ratio of Mu1 to pCMVβ ([1]; 0.5/1.0 (w/w) Mu1 to pCMVβ, 12000 cations to 7500 anions): 1.6
- concentration in solution, optimal transfections (ND7 cells; 12 μg Mu1/1 μg pCMVβ, 400 μL): 30 ng/mL
- relative ratios pCMVβ/Mu1/(DC-Chol/DOPE) giving greatest improvement in transfection efficiencies (ND7 cells; 0.6-21 μg Mu1, 3-6 μg liposome per 1 μg pCMVβ tested): 1/12/6
- increase in transfections compared to DNA alone (ND7 cells; 1/12/6 pCMVβ/Mu1/(DC-Chol/DOPE) w/w/w): 11 fold
- concentration of protein in the cellular lysates vs untransfected cells (ND7 cells; Mu1 complex (data not shown)): did not significantly vary
- improvement in transfection efficiencies over naked DNA (ND7 cells; pCMVβ complexed to Mu1 alone, no liposome): No improvement in transfection efficiencies over naked DNA
- effect on transfection efficiencies (ND7 cells; pDNA:Mu1 1:0.5 (w/w) with liposomes, initial experiments (not shown)): did not affect transfection efficiencies
- improvement of cationic liposome mediated transfection efficiencies (ND7 cells; β-galactosidase activity, Mu1 with DC-Chol/DOPE vs liposome without Mu1): over 4 fold
